Square brackets hold non-standard residues; d marks the D form. Ends that are not written are not given here. Peptide text beside a SMILES is read from it.
Legend:
bleomycin-treated mice [1] = assay: Bleomycin-induced lung and skin fibrosis, daily i.p. WCSD; format: in vivo
Experimental: Pumps containing bleomycin or saline vehicle were implanted subcutaneously into mice. After one week, the pumps had emptied. In addition, mice were injected i.p. daily as indicated, then sacrificed on day 22. All groups contained 4 mice.
Fibrocytes (CD45+/Col I+ cells) were quantified by Flow Cytometry. ECM proteins (Col I, Tenascin C), myofibroblast markers (HSP47, ASMA), and microvascular leakage (IgG Heavy Chain that remained in the tissue after perfusion) were quantified by Western blotting (n=4). Western blot data were quantified densitometrically following normalization to an actin loading control. The value in Saline treated mice was set to 1.0 Arbitrary Unit. ^^p<0.01, ^p<0.05 for Saline/Vehicle vs Bleo/Vehicle; *p<0.05 for Bleo/Vehicle vs Bleo/WCSD.

VEGFR3 = VEGFR3 (Homo sapiens, UniProt P35916); assay: Inhibition of purified kinases; format: biochemical; settings: purified kinase
VEGFR1 = VEGFR1 (Homo sapiens, UniProt P17948); assay: Inhibition of purified kinases; format: biochemical; settings: purified kinase
PDGFRα = PDGFRα (Homo sapiens, UniProt P16234); assay: Inhibition of purified kinases; settings: purified kinase
PDGFRβ = PDGFRβ (Homo sapiens, UniProt P09619); assay: Inhibition of purified kinases; settings: purified kinase
PKCα = PKCα (Homo sapiens, UniProt P17252); assay: Inhibition of purified kinases; format: biochemical; settings: purified kinase
Src = Src (Homo sapiens, UniProt P12931); assay: Inhibition of purified kinases; format: biochemical; settings: purified kinase; nintedanib worked at much lower concentrations
VEGFR2 = VEGFR2 (Homo sapiens, UniProt P35968); assay: Inhibition of purified kinases; format: biochemical; settings: purified kinase; nintedanib worked at much lower concentrations
TGFβR1 = target: T1, TGFβR1 (Homo sapiens, UniProt P36897); assay: Inhibition of purified kinases; format: biochemical; settings: purified kinase; nintedanib worked at much lower concentrations
T1 sequence (P36897 34-503): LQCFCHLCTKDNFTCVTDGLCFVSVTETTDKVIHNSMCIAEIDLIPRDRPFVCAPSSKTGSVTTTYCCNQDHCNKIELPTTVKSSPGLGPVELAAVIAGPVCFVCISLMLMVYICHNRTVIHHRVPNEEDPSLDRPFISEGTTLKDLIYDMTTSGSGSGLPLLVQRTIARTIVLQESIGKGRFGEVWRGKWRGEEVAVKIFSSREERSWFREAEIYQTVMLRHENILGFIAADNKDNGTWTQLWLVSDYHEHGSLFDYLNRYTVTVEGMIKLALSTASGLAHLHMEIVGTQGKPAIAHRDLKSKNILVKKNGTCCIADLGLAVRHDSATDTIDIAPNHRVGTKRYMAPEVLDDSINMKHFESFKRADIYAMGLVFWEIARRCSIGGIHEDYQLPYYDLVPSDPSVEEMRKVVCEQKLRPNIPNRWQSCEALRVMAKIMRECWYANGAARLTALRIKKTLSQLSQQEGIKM

cMet = cMet (Homo sapiens, UniProt P08581); assay: Inhibition of purified kinases; format: biochemical; settings: purified kinase
PKCε = target: T2, PKCε (Homo sapiens, UniProt Q02156); assay: Inhibition of purified kinases; format: biochemical; settings: purified kinase
T2 sequence (Q02156 1-737): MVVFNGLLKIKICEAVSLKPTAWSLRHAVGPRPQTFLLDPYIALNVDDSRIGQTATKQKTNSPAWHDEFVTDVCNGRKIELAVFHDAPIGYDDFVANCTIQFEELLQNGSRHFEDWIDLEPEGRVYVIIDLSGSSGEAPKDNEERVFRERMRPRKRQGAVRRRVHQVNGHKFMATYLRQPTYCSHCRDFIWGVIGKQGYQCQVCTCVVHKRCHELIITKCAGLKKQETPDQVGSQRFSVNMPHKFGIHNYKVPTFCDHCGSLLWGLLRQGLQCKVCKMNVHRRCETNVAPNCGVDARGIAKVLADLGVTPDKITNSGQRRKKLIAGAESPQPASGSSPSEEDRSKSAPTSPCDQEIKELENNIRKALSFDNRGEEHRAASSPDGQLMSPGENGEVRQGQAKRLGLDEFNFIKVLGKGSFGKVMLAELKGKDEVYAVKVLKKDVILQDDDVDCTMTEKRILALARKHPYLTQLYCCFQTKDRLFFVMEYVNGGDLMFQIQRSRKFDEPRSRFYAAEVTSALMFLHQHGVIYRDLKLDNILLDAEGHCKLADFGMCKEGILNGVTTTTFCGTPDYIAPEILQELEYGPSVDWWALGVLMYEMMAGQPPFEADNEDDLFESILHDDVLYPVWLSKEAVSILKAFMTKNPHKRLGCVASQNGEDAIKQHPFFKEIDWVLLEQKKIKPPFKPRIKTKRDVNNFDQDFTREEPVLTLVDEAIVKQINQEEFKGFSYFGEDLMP

bleomycin-treated mice [2] = assay: Bleomycin-induced lung and skin fibrosis, treatments delivered by pump; format: in vivo; settings: for bleomycin-induced lung fibrosis (Ashcroft score): treatment by pump over two weeks after one week bleomycin, n=6
Experimental: Experiments were conducted to examine the effect of unmodified CSD subdomains on lung and skin fibrosis. […] Pumps containing bleomycin or saline vehicle were implanted subcutaneously into mice. After one week, the pumps had emptied and were replaced with pumps designed to empty over two weeks containing the indicated treatments (n=6 per group). After these two weeks, the mice were sacrificed.
Skin in the vicinity of the pump outlet was harvested for measurement of the thickness of the dermis and the intradermal fat. ^^^p<0.001 for Saline/Vehicle vs Bleo/Vehicle. ***p<0.001, **p<0.01, *p<0.05 for Bleo/Vehicle vs Bleo/Peptide Treatments.

Ang II-infused mice = assay: Angiotensin II-induced congestive heart failure (CHF) model; format: in vivo; settings: for suppression of AngII-induced fibrosis in the heart (Col I deposition and HSP47 level) / suppression of AngII-induced microvascular leakage in the heart (IgG heavy chain level in the tissue): Western blot; for overall effectiveness of domains in the CHF model (summary of FIGS. 1-7): FIG. 8; for suppression of the effects of AngII on Heart Weight/Body Weight (HW/BW) ratio: young mice (3 months) infused with Ang II two weeks
Experimental: FIG. 1 provides an overview of an experiment using Full-Length CSD, 82-89, 88-95, and 94-101 (SEQ ID NO:1, SEQ ID NO:2, SEQ ID NO:3, and SEQ ID NO:4 respectively).
Young mice (3 months old) infused with Ang II or vehicle for two weeks received daily i.p. injections of CSD, the indicated subdomains or scrambled CSD (0.8 μmol/kg). Mice were evaluated by Echocardiography for changes in posterior wall thickness (pWTh), fractional shortening (FS), cardiac output (CO), ejection fraction (EF), and isovolumic relaxation time (IVRT). Significant changes are shown as ***p<0.001 for Sham+Veh vs AngII+Veh. Significant suppression of AngII-induced changes is shown as ^p<0.05, ^^p<0.01, and ^^^p<0.001 for AngII+Veh vs AngII+CSD or AngII+CSD subdomains. The number of mice used in each treatment are shown in the HW/BW data.
Young mice (3 months old) infused with Ang II or vehicle for two weeks received daily i.p. injections of the indicated subdomains of CSD. The results of a typical experiment for Col I and HSP47 (FIG. 4) and for microvascular leakage (FIG. 5) are shown in Western blots (2 to 3 mice per group). The data are quantified below (n=4). Significant changes are shown as *p<0.05 and **p<0.01 for Sham+Veh vs Ang II+Veh. Significant suppression of Ang II-induced changes by subdomains are shown as ^p<0.05, […], and ^^^p<0.001 for Ang II+Veh vs Ang II+CSD subdomains.
Young mice (3 months old) infused with Ang II or vehicle for two weeks received daily i.p. injections of W82-89. IgG heavy chain (IgGH) leakage and Col I accumulation are shown in Western blots. The actin loading control is present twice because IgGH was analyzed in the supernatant fraction of heart homogenate while Col I is found in the pellet fraction. In the quantitation (n=4), significant changes are shown as **p<0.01 and ***p<0.001 for Sham+Veh vs Ang II+Veh and ^^p<0.01 and ^^^p<0.001 for reversal of AngII-induced changes by W82-89.

[3] = young mice infused with Ang II two weeks, daily i.p. injections, echocardiography

Chain of VEGFR1 (P17948 27-1338, species assumed): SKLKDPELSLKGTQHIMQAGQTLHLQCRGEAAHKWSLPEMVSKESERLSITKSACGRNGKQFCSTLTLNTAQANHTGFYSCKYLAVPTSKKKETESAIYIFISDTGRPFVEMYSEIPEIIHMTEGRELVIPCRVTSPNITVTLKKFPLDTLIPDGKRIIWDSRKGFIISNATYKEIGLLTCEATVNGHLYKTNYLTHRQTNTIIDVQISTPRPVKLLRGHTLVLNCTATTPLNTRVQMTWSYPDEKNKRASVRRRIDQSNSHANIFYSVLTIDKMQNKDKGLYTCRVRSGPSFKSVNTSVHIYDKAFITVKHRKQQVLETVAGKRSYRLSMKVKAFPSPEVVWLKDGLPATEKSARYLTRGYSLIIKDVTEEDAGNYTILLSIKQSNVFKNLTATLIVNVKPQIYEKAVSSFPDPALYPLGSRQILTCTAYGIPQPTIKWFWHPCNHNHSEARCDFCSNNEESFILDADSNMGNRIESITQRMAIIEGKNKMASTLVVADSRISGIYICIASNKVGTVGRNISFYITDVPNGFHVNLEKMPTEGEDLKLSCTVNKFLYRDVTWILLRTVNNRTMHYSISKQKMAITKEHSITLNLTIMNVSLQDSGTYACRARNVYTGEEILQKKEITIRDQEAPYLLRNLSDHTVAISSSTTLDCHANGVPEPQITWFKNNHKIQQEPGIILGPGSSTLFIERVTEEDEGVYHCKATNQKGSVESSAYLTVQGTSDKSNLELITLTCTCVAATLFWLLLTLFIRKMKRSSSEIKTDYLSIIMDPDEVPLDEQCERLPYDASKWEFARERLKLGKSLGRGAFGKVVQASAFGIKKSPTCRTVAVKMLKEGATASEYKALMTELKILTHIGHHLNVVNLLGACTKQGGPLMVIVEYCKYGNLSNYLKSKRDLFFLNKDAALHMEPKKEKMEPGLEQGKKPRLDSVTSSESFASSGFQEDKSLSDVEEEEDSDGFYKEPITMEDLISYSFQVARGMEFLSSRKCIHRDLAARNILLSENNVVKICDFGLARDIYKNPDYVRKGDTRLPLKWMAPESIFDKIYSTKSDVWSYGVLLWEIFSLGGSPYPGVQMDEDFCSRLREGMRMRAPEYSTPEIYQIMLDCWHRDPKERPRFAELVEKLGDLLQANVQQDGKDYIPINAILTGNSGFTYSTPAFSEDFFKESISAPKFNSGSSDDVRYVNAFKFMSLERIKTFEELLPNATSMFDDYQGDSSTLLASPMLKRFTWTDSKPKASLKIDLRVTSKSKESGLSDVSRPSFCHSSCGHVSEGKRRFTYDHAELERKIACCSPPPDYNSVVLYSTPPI
Chain of VEGFR3 (P35916 25-1363, species assumed): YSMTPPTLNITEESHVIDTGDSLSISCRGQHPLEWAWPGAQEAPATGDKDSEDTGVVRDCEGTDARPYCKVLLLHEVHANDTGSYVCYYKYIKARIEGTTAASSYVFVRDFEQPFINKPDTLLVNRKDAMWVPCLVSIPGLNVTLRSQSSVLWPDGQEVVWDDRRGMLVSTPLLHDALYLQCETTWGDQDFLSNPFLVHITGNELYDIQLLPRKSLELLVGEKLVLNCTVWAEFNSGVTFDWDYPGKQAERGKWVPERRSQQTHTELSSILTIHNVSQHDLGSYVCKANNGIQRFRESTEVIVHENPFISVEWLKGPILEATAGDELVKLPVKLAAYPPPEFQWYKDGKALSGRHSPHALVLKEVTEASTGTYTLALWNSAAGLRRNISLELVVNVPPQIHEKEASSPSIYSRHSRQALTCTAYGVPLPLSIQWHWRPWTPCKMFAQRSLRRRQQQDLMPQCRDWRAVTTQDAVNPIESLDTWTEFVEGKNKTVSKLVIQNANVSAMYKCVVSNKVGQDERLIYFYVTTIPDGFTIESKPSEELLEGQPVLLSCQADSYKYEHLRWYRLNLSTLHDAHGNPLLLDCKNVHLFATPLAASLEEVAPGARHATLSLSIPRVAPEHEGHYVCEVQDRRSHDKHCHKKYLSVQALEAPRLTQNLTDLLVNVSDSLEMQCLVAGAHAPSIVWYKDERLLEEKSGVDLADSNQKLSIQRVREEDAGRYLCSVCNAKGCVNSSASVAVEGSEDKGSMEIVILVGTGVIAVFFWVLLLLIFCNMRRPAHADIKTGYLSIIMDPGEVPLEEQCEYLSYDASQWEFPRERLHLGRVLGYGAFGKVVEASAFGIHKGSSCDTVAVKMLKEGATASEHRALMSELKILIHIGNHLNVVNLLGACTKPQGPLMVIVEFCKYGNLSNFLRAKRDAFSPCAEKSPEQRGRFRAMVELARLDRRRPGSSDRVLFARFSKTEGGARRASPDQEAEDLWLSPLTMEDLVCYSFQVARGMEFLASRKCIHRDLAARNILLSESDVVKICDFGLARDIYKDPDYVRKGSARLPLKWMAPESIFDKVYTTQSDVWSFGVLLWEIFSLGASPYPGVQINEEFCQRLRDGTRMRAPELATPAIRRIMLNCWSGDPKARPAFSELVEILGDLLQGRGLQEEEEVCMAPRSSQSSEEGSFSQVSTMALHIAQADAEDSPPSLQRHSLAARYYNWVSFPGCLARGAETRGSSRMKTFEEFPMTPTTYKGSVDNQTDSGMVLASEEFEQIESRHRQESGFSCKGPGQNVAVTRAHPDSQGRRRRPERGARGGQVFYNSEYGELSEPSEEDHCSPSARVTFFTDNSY
Chain of PDGFRβ (P09619 33-1106, species assumed): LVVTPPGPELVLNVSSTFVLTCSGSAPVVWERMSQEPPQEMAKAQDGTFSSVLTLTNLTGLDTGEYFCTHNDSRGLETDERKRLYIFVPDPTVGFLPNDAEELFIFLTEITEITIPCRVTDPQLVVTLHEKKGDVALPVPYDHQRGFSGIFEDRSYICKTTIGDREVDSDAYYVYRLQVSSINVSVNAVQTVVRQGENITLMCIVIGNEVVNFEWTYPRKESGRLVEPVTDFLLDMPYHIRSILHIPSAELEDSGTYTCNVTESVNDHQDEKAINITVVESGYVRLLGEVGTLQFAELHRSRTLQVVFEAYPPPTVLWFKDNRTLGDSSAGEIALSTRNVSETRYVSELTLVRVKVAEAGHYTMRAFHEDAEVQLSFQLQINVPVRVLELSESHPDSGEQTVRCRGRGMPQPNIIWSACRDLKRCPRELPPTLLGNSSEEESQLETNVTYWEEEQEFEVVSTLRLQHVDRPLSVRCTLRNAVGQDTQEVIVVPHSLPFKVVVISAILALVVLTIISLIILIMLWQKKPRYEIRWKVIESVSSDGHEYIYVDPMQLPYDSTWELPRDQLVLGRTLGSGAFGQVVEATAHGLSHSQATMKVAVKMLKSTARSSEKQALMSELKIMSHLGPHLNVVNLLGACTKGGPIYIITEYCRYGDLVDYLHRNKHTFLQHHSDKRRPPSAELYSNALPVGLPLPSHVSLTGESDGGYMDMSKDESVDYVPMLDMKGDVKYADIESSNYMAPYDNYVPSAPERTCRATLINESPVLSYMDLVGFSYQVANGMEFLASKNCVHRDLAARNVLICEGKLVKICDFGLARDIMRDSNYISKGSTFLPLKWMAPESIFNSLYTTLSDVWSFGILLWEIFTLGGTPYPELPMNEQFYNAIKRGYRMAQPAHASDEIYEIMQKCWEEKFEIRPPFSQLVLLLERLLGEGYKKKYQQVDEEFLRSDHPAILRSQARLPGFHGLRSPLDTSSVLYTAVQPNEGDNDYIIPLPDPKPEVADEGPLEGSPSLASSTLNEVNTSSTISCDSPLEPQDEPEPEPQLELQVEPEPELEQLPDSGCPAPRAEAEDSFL
Chain of Src (P12931 whole entry, species assumed): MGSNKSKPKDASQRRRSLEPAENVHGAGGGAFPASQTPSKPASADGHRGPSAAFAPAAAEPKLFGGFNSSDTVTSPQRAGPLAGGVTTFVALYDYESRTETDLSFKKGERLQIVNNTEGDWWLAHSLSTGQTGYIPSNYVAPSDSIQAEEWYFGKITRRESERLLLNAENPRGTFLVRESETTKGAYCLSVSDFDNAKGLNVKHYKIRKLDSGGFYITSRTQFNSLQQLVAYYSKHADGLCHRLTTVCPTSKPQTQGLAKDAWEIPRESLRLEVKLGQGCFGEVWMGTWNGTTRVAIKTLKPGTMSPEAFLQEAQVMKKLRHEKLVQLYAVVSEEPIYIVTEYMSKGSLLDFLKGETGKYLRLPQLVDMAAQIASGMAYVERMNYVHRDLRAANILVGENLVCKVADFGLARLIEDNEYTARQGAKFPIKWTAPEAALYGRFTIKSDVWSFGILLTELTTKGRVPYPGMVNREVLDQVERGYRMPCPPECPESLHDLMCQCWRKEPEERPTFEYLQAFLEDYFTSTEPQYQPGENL

CC[C@H](C)[C@H](NC(=O)CNC(=O)[C@H](CC(=O)O)NC(=O)[C@@H](CCCCN)NC(=O)[C@@H](CCCCN)NC(C)=O)C(=O)N[C@@H](Cc1c[nH]c2ccccc12)C(=O)N[C@@H](CCCCN)C(=O)N[C@@H](C)C(=O)N[C@@H](CO)C(=O)N[C@@H](Cc1ccccc1)C(=O)N[C@H](C(=O)N[C@H](C(=O)N[C@@H](Cc1ccccc1)C(=O)N[C@H](C(=O)N[C@H](C(=O)N[C@H](C(=O)N[C@@H](CCCCN)C(=O)N[C@@H](Cc1ccc(O)cc1)C(=O)N[C@@H](Cc1c[nH]c2ccccc12)C(=O)N[C@@H](Cc1ccccc1)C(=O)N[C@@H](Cc1ccc(O)cc1)C(=O)N[C@@H](CCCNC(=N)N)C(=O)N[C@H](CCCCN)C(=O)N[C@H](CCCCN)C(N)=O)[C@@H](C)O)C(C)C)[C@@H](C)O)[C@@H](C)O)[C@@H](C)O [WCSD] (Ac-[dK][dK]DGIWKASFTTFTVTKYWFYR[dK][dK]-NH2)
fibrocytes (CD45+/Col I+ cells) in lung (bleomycin-treated mice [1]; Flow Cytometry): almost completely suppressed by WCSD down to the levels in control, saline-treated mice
bleomycin-induced loss of the transdermal adipose layer in the skin (bleomycin-treated mice [1]; WCSD treatment beginning on day 8): suppresses the almost complete loss of the transdermal adipose layer
ECM proteins (Col I, Tenascin C) in lung (bleomycin-treated mice [1]; Western blotting, n=4): almost completely suppressed by WCSD down to the levels in control, saline-treated mice
microvascular leakage (IgG Heavy Chain remaining in the tissue after perfusion) in lung (bleomycin-treated mice [1]; Western blotting, n=4): almost completely suppressed by WCSD down to the levels in control, saline-treated mice
myofibroblast markers (HSP47, ASMA) in lung (bleomycin-treated mice [1]; Western blotting, n=4): almost completely suppressed by WCSD down to the levels in control, saline-treated mice
survival (bleomycin-treated mice [1]; bleomycin pump, daily i.p. WCSD): outstanding beneficial effect on survival
lung fibrosis and inflammatory cell infiltration (histology) (bleomycin-treated mice [1]; bleomycin, treatment also delayed until day 8): suppressed by WCSD even when treatment is delayed until day 8

COC(=O)c1ccc2c(c1)NC(=O)/C2=C(\Nc1ccc(N(C)C(=O)CN2CCN(C)CC2)cc1)c1ccccc1 [nintedanib]
inhibition of VEGFR3 (VEGFR3): inhibits
inhibition of VEGFR1 (VEGFR1): inhibits
inhibition of PDGFRα (PDGFRα): inhibits
inhibition of PDGFRβ (PDGFRβ): inhibits
inhibition of PKCα (PKCα): has no effect
inhibition of Src (Src): inhibit
inhibition of VEGFR2 (VEGFR2): inhibit
inhibition of TGFβR1 (TGFβR1): inhibit
inhibition of cMet (cMet): has no effect
inhibition of PKCε (PKCε): has no effect

82-89: CSD subdomain DGIWKASF-NH2
activity across all readouts of the bleomycin model (lung, skin, monocyte migration) (bleomycin-treated mice [2]; Example 4 summary): most active of the subdomains tested
bleomycin-induced lung fibrosis (Ashcroft score) (bleomycin-treated mice [2]): suppression
suppression of AngII-induced fibrosis in the heart (Col I deposition and HSP47 level) (Ang II-infused mice; daily i.p. injections): significant beneficial effect
suppression of AngII-induced microvascular leakage in the heart (IgG heavy chain level in the tissue) (Ang II-infused mice; daily i.p. injections): almost completely suppressed
overall effectiveness of domains in the CHF model (summary of FIGS. 1-7) (Ang II-infused mice): active
suppression of the effects of AngII on Heart Weight/Body Weight (HW/BW) ratio (Ang II-infused mice; daily i.p. injections): essentially equally effective as 88-95
suppression of the effects of AngII on Ejection Fraction (EF), Fractional Shortening (FS), Isovolumic Relaxation Time (IVRT) (Ang II-infused mice; [3]): significant beneficial effect

94-101: CSD subdomain VTKYWFYR-NH2
bleomycin-induced lung fibrosis (Ashcroft score) (bleomycin-treated mice [2]): suppression

88-95: CSD subdomain SFTTFTVT-NH2
bleomycin-induced lung fibrosis (Ashcroft score) (bleomycin-treated mice [2]): suppression
suppression of AngII-induced fibrosis in the heart (Col I deposition and HSP47 level) (Ang II-infused mice; daily i.p. injections): most effective CSD subdomain
suppression of AngII-induced microvascular leakage in the heart (IgG heavy chain level in the tissue) (Ang II-infused mice; daily i.p. injections): almost completely suppressed
overall effectiveness of domains in the CHF model (summary of FIGS. 1-7) (Ang II-infused mice): most effective Dimethyl sulfoxide (DMSO)-solubilized domain tested
suppression of the effects of AngII on Heart Weight/Body Weight (HW/BW) ratio (Ang II-infused mice; daily i.p. injections): most effective CSD subdomain
suppression of the effects of AngII on Ejection Fraction (EF), Fractional Shortening (FS), Isovolumic Relaxation Time (IVRT) (Ang II-infused mice; [3]): most effective CSD subdomain
suppression of the effects of AngII on Left Ventricle (LV) Mass and Posterior Wall Thickness (pWTh) (Ang II-infused mice; [3]): most effective CSD subdomain
